Test results as given in patent US8343961B2, “Substituted heterocyclic compounds” (ArQule, Inc., priority 2009, dated 2013).

What follows are compounds tested against T1, Tec kinase (Homo sapiens, UniProt P42680) (assay: Tec Kinase Activity Assay). Details: read-out: Tec % INH, at 30 uM.
T1 sequence (P42680 1-631): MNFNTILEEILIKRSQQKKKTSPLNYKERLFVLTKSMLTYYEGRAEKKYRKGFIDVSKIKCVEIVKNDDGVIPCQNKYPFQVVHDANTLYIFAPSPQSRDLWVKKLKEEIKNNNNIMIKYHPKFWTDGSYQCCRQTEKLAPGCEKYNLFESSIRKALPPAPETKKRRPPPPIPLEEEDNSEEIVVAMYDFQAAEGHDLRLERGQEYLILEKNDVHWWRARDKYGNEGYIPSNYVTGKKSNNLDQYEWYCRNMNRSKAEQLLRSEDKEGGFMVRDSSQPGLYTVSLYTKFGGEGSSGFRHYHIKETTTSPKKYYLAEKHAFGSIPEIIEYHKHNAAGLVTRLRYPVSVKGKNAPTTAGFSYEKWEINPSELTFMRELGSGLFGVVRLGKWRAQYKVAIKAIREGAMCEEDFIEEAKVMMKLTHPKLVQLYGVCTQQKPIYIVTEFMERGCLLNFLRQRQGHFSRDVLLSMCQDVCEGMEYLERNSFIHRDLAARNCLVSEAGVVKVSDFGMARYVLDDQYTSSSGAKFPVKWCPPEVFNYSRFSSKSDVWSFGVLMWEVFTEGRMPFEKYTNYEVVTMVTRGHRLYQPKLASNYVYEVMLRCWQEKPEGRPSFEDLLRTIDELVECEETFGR
Format: biochemical
Method: The disclosed compounds were assayed for their ability to inhibit the activity of Tec kinase. Nunc Maxisorb plates were coated with streptavidin by overnight incubation with 100 μL per well of 1 μg/mL Streptavidin in DPBS. Prior to the start of the experiment, the plates were washed with TBST (3×200 μL) and blocked for at least 1 hour by adding 150 μL of 5% BSA/TBST. The plates were washed with TBST (3×200 μL/well) and left dry immediately before the capture step.
The test articles and controls (Staurosporine and Sutent) were prepared using the following assay buffer @ 3× desired final concentration (50 mM Tris-HCl, 0.02 mg/mL BSA, 10 mM MgCl2, 0.1 mM Na3VO4, 1 mM EGTA, 75 μM ATP0.01% NP-40, 2 mM DTT in 10% glycerol/water). In a reaction plate were added rapidly 20 μL test article (or control) and 20 μL TEC 0.25 ng/4. The plate was incubated for 30 minutes. To the reaction plate was added 20 μL of Pyk-2.5 ng/μL. The plate was incubated at room temperature for two hours. From the reaction plate, 50 μL was transferred to the streptavidin coated plate. The capture plate was incubated at room temperature for 30 minutes then washed 6× with TBST. To the capture plate was added 100 μL/well of Cell Signaling anti-phospho tyrosine at a dilution of 1:3000 in 2% BSA/TBST. The plate was incubated for one hour at room temperature then washed 6× with TBST. To the capture plate was added 100 μL/well of Alkaline Phosphatase Tagged Goat anti Mouse Antibody at a dilution of 1:4000 in 2% BSA/TBST. The plate was incubated for one hour at room temperature then washed 6× with TBST. The fluorescent readout was initiated by the addition of 100 μL/well of Attophos reagent (6 mg/10 mL). The reading was done on the Perkin Elmer Envision system.

Row | inhibition at 30 µM [%] | Compound
1 | 50 to 79 | COc1ccc(OC)c(CN2CCN(c3nc(N)nc4[nH]cnc34)Cc3ccccc32)c1 [Compound 35, 6-[1-(2,5-dimethoxybenzyl)-1,2,3,5-tetrahydro-4H-1,4-benzodiazepin-4-yl]-9H-purin-2-amine]
2 | 50 to 79 | Nc1nc(N2CCN(Cc3ccc(F)cc3F)c3ccccc3C2)c2nc[nH]c2n1 [Compound 37, 6-[1-(2,4-difluorobenzyl)-1,2,3,5-tetrahydro-4H-1,4-benzodiazepin-4-yl]-9H-purin-2-amine]
3 | < 50 | Nc1nc(N2CCN(Cc3ccc(Cl)c(Cl)c3)c3ccccc3C2)c2nc[nH]c2n1 [Compound 42, 6-[1-(3,4-dichlorobenzyl)-1,2,3,5-tetrahydro-4H-1,4-benzodiazepin-4-yl]-9H-purin-2-amine]
4 | < 50 | Nc1nc(N2CCN(Cc3ccc(F)c(F)c3)c3ccccc3C2)c2nc[nH]c2n1 [Compound 46, 6-[1-(3,4-difluorobenzyl)-1,2,3,5-tetrahydro-4H-1,4-benzodiazepin-4-yl]-9H-purin-2-amine]
5 | < 50 | COc1cc2c(cc1OC)C(c1cccc(Cl)c1F)N(c1nc(N)nc3[nH]cnc13)CC2 (stereo not shown) [Compound 49, 6-[1-(3-chloro-2-fluorophenyl)-6,7-dimethoxy-3,4-dihydroisoquinolin-2(1H)-yl]-9H-purin-2-amine]
6 | < 50 | COc1cc2c(cc1OC)C(CCc1ccccc1)N(c1nc(N)nc3[nH]ncc13)CC2 (stereo not shown) [Compound 51, 4-[6,7-dimethoxy-1-(2-phenylethyl)-3,4-dihydroisoquinolin-2(1H)-yl]-1H-pyrazolo[3,4-d]pyrimidin-6-amine]

Second part, the compound before the results:

Row | Compound | inhibition at 30 µM [%]
7 | Cc1cccc(CN2CCN(c3nc(N)nc4[nH]ncc34)Cc3ccccc32)c1 [Compound 34, 4-[1-(3-methylbenzyl)-1,2,3,5-tetrahydro-4H-1,4-benzodiazepin-4-yl]-1H-pyrazolo[3,4-d]pyrimidin-6-amine] | 50 to 79
8 | COc1ccc(OC)c(CN2CCN(c3nc(N)nc4[nH]ncc34)Cc3ccccc32)c1 [Compound 36, 4-[1-(2,5-dimethoxybenzyl)-1,2,3,5-tetrahydro-4H-1,4-benzodiazepin-4-yl]-1H-pyrazolo[3,4-d]pyrimidin-6-amine] | 50 to 79
9 | Nc1nc(N2CCN(Cc3ccc(F)cc3F)c3ccccc3C2)c2cn[nH]c2n1 [Compound 38, 4-[1-(2,4-difluorobenzyl)-1,2,3,5-tetrahydro-4H-1,4-benzodiazepin-4-yl]-1H-pyrazolo[3,4-d]pyrimidin-6-amine] | 50 to 79
10 | Nc1nc(N2CCN(CCCc3cccc(F)c3)c3ccccc3C2)c2nc[nH]c2n1 [Compound 39, 6-{1-[3-(3-fluorophenyl)propyl]-1,2,3,5-tetrahydro-4H-1,4-benzodiazepin-4-yl}-9H-purin-2-amine] | < 50
11 | Nc1nc(N2CCN(CCCc3ccccc3)c3ccccc3C2)c2nc[nH]c2n1 [Compound 40, 6-[1-(3-phenylpropyl)-1,2,3,5-tetrahydro-4H-1,4-benzodiazepin-4-yl]-9H-purin-2-amine] | > 79
12 | Nc1nc(N2CCN(CCCc3ccccc3)c3ccccc3C2)c2cn[nH]c2n1 [Compound 41, 4-[1-(3-phenylpropyl)-1,2,3,5-tetrahydro-4H-1,4-benzodiazepin-4-yl]-1H-pyrazolo[3,4-d]pyrimidin-6-amine] | 50 to 79
13 | Nc1nc(N2CCN(Cc3ccc(Cl)c(Cl)c3)c3ccccc3C2)c2cn[nH]c2n1 [Compound 43, 4-[1-(3,4-dichlorobenzyl)-1,2,3,5-tetrahydro-4H-1,4-benzodiazepin-4-yl]-1H-pyrazolo[3,4-d]pyrimidin-6-amine] | > 79
14 | Cc1ccc(CCCN2CCN(c3nc(N)nc4[nH]cnc34)Cc3ccccc32)cc1 [Compound 44, 6-{1-[3-(4-methylphenyl)propyl]-1,2,3,5-tetrahydro-4H-1,4-benzodiazepin-4-yl}-9H-purin-2-amine] | < 50
15 | Cc1ccc(CCCN2CCN(c3nc(N)nc4[nH]ncc34)Cc3ccccc32)cc1 [Compound 45, 4-{1-[3-(4-methylphenyl)propyl]-1,2,3,5-tetrahydro-4H-1,4-benzodiazepin-4-yl}-1H-pyrazolo[3,4-d]pyrimidin-6-amine] | > 79
16 | Nc1nc(N2CCN(Cc3ccc(F)c(F)c3)c3ccccc3C2)c2cn[nH]c2n1 [Compound 47, 4-[1-(3,4-difluorobenzyl)-1,2,3,5-tetrahydro-4H-1,4-benzodiazepin-4-yl]-1H-pyrazolo[3,4-d]pyrimidin-6-amine] | 50 to 79
